Data reported in PMC2009863, “Pharmacokinetic considerations in testing hypoxic cell radiosensitizers in mouse tumours” (British Journal of Cancer, 1979).
Several values for one entry are separate records, joined by “and”; a condition that tells them apart may be missing. Equal entries are not always repeated. Where two headings read alike, the source gives them in different places.

How the values were obtained:
[1] = cited from earlier work
[2] = cited from earlier work; for tumour concentration as % of corresponding plasma concentration: clinical studies, HPLC, after MIS administration, ref Wiltshire et al.
[3] = Excerpt: Several groups are now pursuing such a goal (Adams, 1977; Brown et al., 1978; Wardman, 1977). […] Specifically the two ques- tions were: (a) How much does the plasma half-life affect the peak plasma level? (b) How much does the plasma half-life affect the tumour/plasma ratio of drug concentrations? MATERIALS AND METHODS A description of the procedures for implanta- tion of tumours, and irradiation and assay of the viability of the tumour cells has been published previously (Brown, 1975). Brieflv, the EMT6/St/lu tumour was transplanted into 3-month-old, syngeneic BALB/c female mice, weighing 20-25 g, and irradiated at a diameter of 6-7 mm. Immediately after irradiation the tumours were removed and minced. The only modification was that the single-cell suspensions were prepared by a 30 min disaggregation using an enzyme "'cock- tail" of 0-05% pronase, 0.02% DNAase and 21 0 02% collagenase (Brown et al., in prepara- tion). Cell viability was assayed by plating appropriate dilutions of the tumour cells into Waymouth's medium containing 15% foetal calf serum in polystyrene Petri dishes, and counting colonies 13 days later. […] Bilateral kidney ligation was performed on anaesthetized mice by exteriorizing the kidneys through a 1 cm incision in the skin and abdominal wall and tying a ligature around the renal artery and vein at the renal pelvis. […] Plasma (or whole blood) and tumour levels of 2-nitroimidazoles were determined in different ways in the two laboratories rep- resented. In the first method, represented in Tables I and II and Fig. 1, tumour and plasma levels were determined on killing of individual mice, and were measured spectrophotomet- rically using UV absorption at 318 nm. […] Tumour levels were determined by preparing a 20% (w/v) homogenate of tumour in distilled water, and adding a 0 4 ml aliquot of homogenate to 2-6 ml absolute ethanol as described above. […]
[4] = Acute toxicity LD50/2d of MIS and Ro-05-9963; settings: mouse, in vivo
Excerpt: Several groups are now pursuing such a goal (Adams, 1977; Brown et al., 1978; Wardman, 1977). […] Specifically the two ques- tions were: (a) How much does the plasma half-life affect the peak plasma level? (b) How much does the plasma half-life affect the tumour/plasma ratio of drug concentrations? MATERIALS AND METHODS A description of the procedures for implanta- tion of tumours, and irradiation and assay of the viability of the tumour cells has been published previously (Brown, 1975). Brieflv, the EMT6/St/lu tumour was transplanted into 3-month-old, syngeneic BALB/c female mice, weighing 20-25 g, and irradiated at a diameter of 6-7 mm. Immediately after irradiation the tumours were removed and minced. […] Plasma (or whole blood) and tumour levels of 2-nitroimidazoles were determined in different ways in the two laboratories rep- resented. In the first method, represented in Tables I and II and Fig. 1, tumour and plasma levels were determined on killing of individual mice, and were measured spectrophotomet- rically using UV absorption at 318 nm. […] Tumour levels were determined by preparing a 20% (w/v) homogenate of tumour in distilled water, and adding a 0 4 ml aliquot of homogenate to 2-6 ml absolute ethanol as described above. […]

[5] = Whole blood MIS and Ro-05-9963 by HPLC after MIS in control, sham-operated and kidney-ligated mice; settings: for half-life: mouse, in vivo, 5 mmol/kg, plasma half-life
Excerpt: (§1) Several groups are now pursuing such a goal (Adams, 1977; Brown et al., 1978; Wardman, 1977). […] Specifically the two ques- tions were: (a) How much does the plasma half-life affect the peak plasma level? (b) How much does the plasma half-life affect the tumour/plasma ratio of drug concentrations? MATERIALS AND METHODS A description of the procedures for implanta- tion of tumours, and irradiation and assay of the viability of the tumour cells has been published previously (Brown, 1975). Brieflv, the EMT6/St/lu tumour was transplanted into 3-month-old, syngeneic BALB/c female mice, weighing 20-25 g, and irradiated at a diameter of 6-7 mm. Immediately after irradiation the tumours were removed and minced. The only modification was that the single-cell suspensions were prepared by a 30 min disaggregation using an enzyme "'cock- tail" of 0-05% pronase, 0.02% DNAase and 21 0 02% collagenase (Brown et al., in prepara- tion). Cell viability was assayed by plating appropriate dilutions of the tumour cells into Waymouth's medium containing 15% foetal calf serum in polystyrene Petri dishes, and counting colonies 13 days later. […] Bilateral kidney ligation was performed on anaesthetized mice by exteriorizing the kidneys through a 1 cm incision in the skin and abdominal wall and tying a ligature around the renal artery and vein at the renal pelvis. The abdominal incision, which was adjoining and parallel to the line of attach- ment of the abdominal wall with the dorsal muscles, was then closed tightly with 4 or 5 stitches, and the skin incision closed with metal clips. The sham operation was identical in all respects except for ligation of the renal artery and vein. […] Plasma (or whole blood) and tumour levels of 2-nitroimidazoles were determined in different ways in the two laboratories rep- resented. In the first method, represented in Tables I and II and Fig. 1, tumour and plasma levels were determined on killing of individual mice, and were measured spectrophotomet- rically using UV absorption at 318 nm. This measures the total concentration of all 2-nitroimidazoles in the sample. The pro- cedure used was a modification of that described by Chapman et al. (1974). To measure plasma levels, 0 4 ml of plasma (collected from heparinized whole blood by cardiac puncture at the time of killing) was added to 2-6 nil absolute ethanol. The mixture was vortexed for 1 min, allowed to stand for 10 min and then centrifuged for 5 min at high speed (1000 g). Tumour levels were determined by preparing a 20% (w/v) homogenate of tumour in distilled water, and adding a 0 4 ml aliquot of homogenate to 2-6 ml absolute ethanol as described above. […] At appropriate times after MIS administration, serial blood samples were taken from the tail of the same mouse. Duplicate 5 /A samples were collected in Microcap pipettes (Drummond Scientific Company), mixed with 45 µl water and stored at -20?C. Finally (usually at 10-12-5 h) the mice were bled by cardiac puncture and the undiluted heparinized whole blood was stored at -20?C.

V-79 cells = settings: cited from earlier work
[6] = Plasma and tumour levels of total 2-nitroimidazoles, UV spectrophotometric assay at 318 nm, EMT6 tumour-bearing mice, normal or bilateral kidney ligation; settings: for Plasma concn. / Tumour concn.: Table I, 5 mmol/kg i.p.; for Plasma concn. / Tumour concn. / Plasma concentration / Tumour concentration: individual mice; for Plasma concentration, Mean / Tumour concentration, Mean / Plasma concentration / Tumour concentration: Table II, 5 mmol/kg
Excerpt: as §1

[7] = parameters: method as in Adams et al., 1976; Brown et al., 1978; settings: ref Adams et al., 1976; Brown et al., 1978; cited from earlier work
[8] = BKL Yes, 38 min after injection

In the case of `COCC(O)Cn1ccnc1[N+](=O)[O-]` (stereo not drawn) [MIS, 1-(2-nitroimidazol-1-yl)-3-methoxypropan-2-ol], the “uptake of (2-14C) MIS as % of plasma concentration” value ([1]; MT mouse tumour and some normal mouse tissues, particularly at less than 6 h, ref Flockhart et al. (1978c)) is listed as “less than 100%”, the “tumour concentration as % of that in blood” value ([1]; different mouse tumours, ref McNally et al. (1978)) is listed as 18-72% and the “tumour concentration as % of corresponding plasma concentration” value ([2]; 1978, Workman et al., 1978b) is listed as 50-70%. For the same compound, the “tumour concentration as % of plasma levels” value ([2]; human tumours, ref Gray et al., 1976, Dische et al., 1977, Urtasun et al.) was 42-107%, the half-life in man ([2]; plasma, ref Foster et al., 1975, Dische et al., 1977, Wiltshire et al., 1978, Workman et al., 1978b) was about 12 h and the “rectal temperature below uninjected mice” value ([3]; 9 h after MIS injection, controls) was at most 3 °C. The “rectal temperature below the uninjected level” value ([3]; 9 h after MIS injection, kidney-ligated mice) was 7 °C, the rectal temperature drop ([3]; first 5 h after MIS injection, all 3 groups) was 5.0 °C and the LD50 at 2 d [4] was 1830 mg/kg. For the same compound, the half-life ([5]; BALB/c, bilateral kidney ligation before injection) was 10 to 11 h, the half-life ([5]; BALB/c, normal mice) was about 2 h and the half-life ([5]; ip, bilateral kidney ligation before injection) was 10 h. For the same compound, the “glucuronide conjugates of MIS and Ro-05-9963 in plasma” value ([5]; normal and sham-operated mice after MIS) was “not found”.

For `O=[N+]([O-])c1nccn1CC(O)CO` (stereo not drawn) [Ro-05-9963, 1-(2-nitroimidazol-1-yl)-2,3-pro-pandiol], the “tumour concentration as % of corresponding plasma concentration” value ([2]; 1978, Workman et al., 1978b) is listed as 50-70%, the “radiosensitizing effectiveness compared with MIS” value (V-79 cells; V-79 cells in vitro, ref Adams et al. (1976)) is listed as “slightly less effective” and the “radiosensitizing effectiveness compared with MIS” value (V-79 cells; in vitro, ref Flockhart et al. (1968b)) is listed as “slightly more so”. For the same compound, the “proportion of Ro-05-9963 to total non-conjugated 2-nitroimidazoles” value ([5]; 38 min after MIS injection, control and nephrectomized mice) was 5%, the “proportion of Ro-05-9963 to total non-conjugated 2-nitroimidazoles” value ([5]; 6.5 h after MIS injection, nephrectomized mice) was 22% and the “proportion of Ro-05-9963 to total non-conjugated 2-nitroimidazoles” value ([5]; 6.5 h after MIS injection, normal mice) was 24%. For the same compound, the “tumour levels lower than plasma concentration” value ([6]; EMT6 tumour) was 30-40%, the plasma half-life ([6]; Fig. 1, normal BALB/c mice, equal peak plasma levels: MIS 5 mmol/kg, Ro-05-9963 10 mmol/kg i.p.) was 0.55 h and the Plasma concn. ([6]; 30 min after inj.) was 2 to 8 mM and 2 to 4 mM and 2 to 6 mM. For the same compound, the Tumour concn. ([6]; 30 min after inj.) was 0-77 mM and 1.5 mM and 1-1 mM, the Plasma concn. ([6]; 37.5 min after inj.) was 2-4 mM (2×) and 2-5 mM and 0-88 mM and the Tumour concn. ([6]; 37.5 min after inj.) was 2-4 mM and 1-7 mM (2×). The Plasma concn. ([6]; 45 min after inj.) was 1 to 5 mM and 0 to 38 mM and 1 to 2 mM, the Tumour concn. ([6]; 45 min after inj.) was 0 to 74 mM and 0 to 76 mM and 0 to 25 mM and the “Plasma concentration, Mean” value ([6]; BKL No, 38 min after injection) was 1000 to 4000 µM. The “Tumour concentration, Mean” value ([6]; BKL No, 38 min after injection) was 1-1 mM, the “Plasma concentration, Mean” value ([6]; BKL Yes, 6 h after injection) was 4000 to 8000 µM and the “Tumour concentration, Mean” value ([6]; BKL Yes, 6 h after injection) was 2 to 8 mM. The Plasma concentration ([6]; BKL No, 38 min after injection) was 0 to 42 mM and 0 to 51 mM and 1 to 93 mM and 2 to 16 mM and 2 to 36 mM and 1 to 27 mM, the Tumour concentration ([6]; BKL No, 38 min after injection) was 0 to 24 mM and 0 to 25 mM and 2 to 35 mM and 1 to 30 mM and 1 to 58 mM and 0 to 90 mM and the Plasma concentration [6, 8] was 4.7 mM (2×) and 5.4 mM and 4-9 mM. The Tumour concentration [6, 8] was 4.3 mM and 2 to 4 mM and 2 to 8 mM and 1 to 6 mM, the Plasma concentration ([6]; BKL Yes, 6 h after injection) was 5.9 mM and 4 to 6 mM and 4 to 7 mM and the Tumour concentration ([6]; BKL Yes, 6 h after injection) was 2 to 3 mM and 2 to 9 mM and 3 to 7 mM. For the same compound, the “plasma and tumour concentrations less than those of MIS, factor” value ([6]; equimolar injected doses, normal mice) was at least 2 and the “lipophilicity compared with MIS” value [7] was “considerably less lipophilic”.
